Test results taken from ChEMBL document CHEMBL2346657, “Synthesis of novel 2-amino-4-(5'-substituted 2'-phenyl-1H-indol-3'-yl)-6-aryl-4H-pyran-3-carbonitrile derivatives as antimicrobial and antioxidant agents” (2013).
Calls of active or inactive are those of the source. How the calls were made is not given here.

Columns and labels:
Format in all cases: functional
[1] = test system: Aspergillus oryzae; assay: Antimicrobial activity against Aspergillus oryzae MTCC 3567 at 1000 ug/ml after 72 hrs by cup plate method; settings: MTCC 3567, 72 h, read-out: IZ
[2] = test system: Staphylococcus aureus; assay: Antimicrobial activity against Staphylococcus aureus ATCC 29513 at 750 ug/ml after 24 hrs by cup plate method; settings: ATCC 29513, 24 h, read-out: IZ
[3] = test system: Aspergillus niger; assay: Antimicrobial activity against Aspergillus niger MTCC 281 at 500 ug/ml after 72 hrs by cup plate method; settings: MTCC 281, 72 h, read-out: IZ
[4] = test system: Aspergillus oryzae; assay: Antimicrobial activity against Aspergillus oryzae MTCC 3567 at 500 ug/ml after 72 hrs by cup plate method; settings: MTCC 3567, 72 h, read-out: IZ
[5] = test system: Pseudomonas aeruginosa; assay: Antimicrobial activity against Pseudomonas aeruginosa MTCC 1688 at 1000 ug/ml after 24 hrs by cup plate method; settings: MTCC 1688, 24 h, read-out: IZ
[6] = test system: Escherichia coli; assay: Antimicrobial activity against Escherichia coli MTCC 723 at 1000 ug/ml after 24 hrs by cup plate method; settings: MTCC 723, 24 h, read-out: IZ
[7] = test system: Aspergillus niger; assay: Antimicrobial activity against Aspergillus niger MTCC 281 at 1000 ug/ml after 72 hrs by cup plate method; settings: MTCC 281, 72 h, read-out: IZ
[8] = test system: Aspergillus terreus; assay: Antimicrobial activity against Aspergillus terreus MTCC 1782 at 500 ug/ml after 72 hrs by cup plate method; settings: MTCC 1782, 72 h, read-out: IZ
[9] = test system: Aspergillus terreus; assay: Antimicrobial activity against Aspergillus terreus MTCC 1782 at 1000 ug/ml after 72 hrs by cup plate method; settings: MTCC 1782, 72 h, read-out: IZ
[10] = test system: Aspergillus flavus; assay: Antimicrobial activity against Aspergillus flavus MTCC 1973 at 500 ug/ml after 72 hrs by cup plate method; settings: MTCC 1973, 72 h, read-out: IZ
[11] = test system: Klebsiella pneumoniae; assay: Antimicrobial activity against Klebsiella pneumoniae NCTC 13368 at 1000 ug/ml after 24 hrs by cup plate method; settings: NCTC 13368, 24 h, read-out: IZ
[12] = test system: Aspergillus flavus; assay: Antimicrobial activity against Aspergillus flavus MTCC 1973 at 750 ug/ml after 72 hrs by cup plate method; settings: MTCC 1973, 72 h, read-out: IZ
[13] = test system: Pseudomonas aeruginosa; assay: Antimicrobial activity against Pseudomonas aeruginosa MTCC 1688 at 500 ug/ml after 24 hrs by cup plate method; settings: MTCC 1688, 24 h, read-out: IZ
[14] = test system: Staphylococcus aureus; assay: Antimicrobial activity against Staphylococcus aureus ATCC 29513 at 1000 ug/ml after 24 hrs by cup plate method; settings: ATCC 29513, 24 h, read-out: IZ
[15] = test system: Aspergillus oryzae; assay: Antimicrobial activity against Aspergillus oryzae MTCC 3567 at 750 ug/ml after 72 hrs by cup plate method; settings: MTCC 3567, 72 h, read-out: IZ
[16] = test system: Aspergillus niger; assay: Antimicrobial activity against Aspergillus niger MTCC 281 at 750 ug/ml after 72 hrs by cup plate method; settings: MTCC 281, 72 h, read-out: IZ
[17] = test system: Aspergillus flavus; assay: Antimicrobial activity against Aspergillus flavus MTCC 1973 at 1000 ug/ml after 72 hrs by cup plate method; settings: MTCC 1973, 72 h, read-out: IZ
[18] = test system: Klebsiella pneumoniae; assay: Antimicrobial activity against Klebsiella pneumoniae NCTC 13368 at 750 ug/ml after 24 hrs by cup plate method; settings: NCTC 13368, 24 h, read-out: IZ
[19] = test system: Aspergillus terreus; assay: Antimicrobial activity against Aspergillus terreus MTCC 1782 at 750 ug/ml after 72 hrs by cup plate method; settings: MTCC 1782, 72 h, read-out: IZ
[20] = test system: Escherichia coli; assay: Antimicrobial activity against Escherichia coli MTCC 723 at 750 ug/ml after 24 hrs by cup plate method; settings: MTCC 723, 24 h, read-out: IZ
[21] = Antioxidant activity assessed as metal chelating activity by measuring inhibition of ferrozine-Fe2+ complex formation at 25 to 100 ug/ml
[22] = test system: Klebsiella pneumoniae; assay: Antimicrobial activity against Klebsiella pneumoniae NCTC 13368 at 500 ug/ml after 24 hrs by cup plate method; settings: NCTC 13368, 24 h, read-out: IZ
[23] = test system: Staphylococcus aureus; assay: Antimicrobial activity against Staphylococcus aureus ATCC 29513 at 500 ug/ml after 24 hrs by cup plate method; settings: ATCC 29513, 24 h, read-out: IZ
[24] = test system: Escherichia coli; assay: Antimicrobial activity against Escherichia coli MTCC 723 at 500 ug/ml after 24 hrs by cup plate method; settings: MTCC 723, 24 h, read-out: IZ
[25] = test system: Pseudomonas aeruginosa; assay: Antimicrobial activity against Pseudomonas aeruginosa MTCC 1688 at 750 ug/ml after 24 hrs by cup plate method; settings: MTCC 1688, 24 h, read-out: IZ

Structure (SMILES) | zone of inhibition at 1000 µg/mL [1] | zone of inhibition at 750 µg/mL [2] | zone of inhibition at 500 µg/mL [3] | zone of inhibition at 500 µg/mL [4] | zone of inhibition at 1000 µg/mL [5] | zone of inhibition at 1000 µg/mL [6] | zone of inhibition at 1000 µg/mL [7] | zone of inhibition at 500 µg/mL [8] | zone of inhibition at 1000 µg/mL [9] | zone of inhibition at 500 µg/mL [10] | zone of inhibition at 1000 µg/mL [11] | zone of inhibition at 750 µg/mL [12] | zone of inhibition at 500 µg/mL [13] | zone of inhibition at 1000 µg/mL [14] | zone of inhibition at 750 µg/mL [15] | zone of inhibition at 750 µg/mL [16] | zone of inhibition at 1000 µg/mL [17] | zone of inhibition at 750 µg/mL [18] | zone of inhibition at 750 µg/mL [19] | zone of inhibition at 750 µg/mL [20] | other results
Cc1ccc2[nH]c(-c3ccccc3)c(C3C=C(c4ccc(Cl)cc4)Oc4[nH]c(=O)nc(N)c43)c2c1 (stereo not given) | 8 mm | 5 mm | 5 mm | 8 mm | 0 mm | 3 mm | 6 mm | 7 mm | 5 mm | 8 mm | 3 mm | 5 mm | 0 mm | 7 mm | 8 mm | 4 mm | 4 mm | 3 mm | 6 mm | 8 mm | Activity [21]: Active; zone of inhibition at 500 µg/mL [22]: 4 mm; zone of inhibition at 500 µg/mL [23]: 5 mm; zone of inhibition at 500 µg/mL [24]: 10 mm; zone of inhibition at 750 µg/mL [25]: 0 mm
Cc1ccc(C2=CC(c3c(-c4ccccc4)[nH]c4ccc(C)cc34)c3c(N)nc(=O)[nH]c3O2)cc1 (stereo not given) | 0 mm | 5 mm | 10 mm | 0 mm | 10 mm | 14 mm | 10 mm | 9 mm | 9 mm | 2 mm | 10 mm | 2 mm | 10 mm | 2 mm | 0 mm | 10 mm | 2 mm | 10 mm | 9 mm | 13 mm | Activity [21]: Active; zone of inhibition at 500 µg/mL [22]: 10 mm; zone of inhibition at 500 µg/mL [23]: 8 mm; zone of inhibition at 500 µg/mL [24]: 13 mm; zone of inhibition at 750 µg/mL [25]: 10 mm
Nc1n[nH]c2c1C(c1c(-c3ccccc3)[nH]c3ccccc13)C=C(c1ccccc1)O2 (stereo not given) | 10 mm | 2 mm | 5 mm | 6 mm | 12 mm | 9 mm | 6 mm | 5 mm | 5 mm | 10 mm | 8 mm | 10 mm | 12 mm | 2 mm | 5 mm | 5 mm | 3 mm | 9 mm | 5 mm | 9 mm | Activity [21]: Active; zone of inhibition at 500 µg/mL [22]: 10 mm; zone of inhibition at 500 µg/mL [23]: 2 mm; zone of inhibition at 500 µg/mL [24]: 10 mm; zone of inhibition at 750 µg/mL [25]: 12 mm
O=c1[nH]cnc2c1C(c1c(-c3ccccc3)[nH]c3ccc(Cl)cc13)C=C(c1ccccc1)O2 (stereo not given) | 13 mm | 12 mm | 7 mm | 12 mm | 3 mm | 11 mm | 7 mm | 10 mm | 9 mm | 12 mm | 9 mm | 12 mm | 3 mm | 12 mm | 13 mm | 7 mm | 13 mm | 9 mm | 10 mm | 10 mm | Activity [21]: Active; zone of inhibition at 500 µg/mL [22]: 9 mm; zone of inhibition at 500 µg/mL [23]: 12 mm; zone of inhibition at 500 µg/mL [24]: 10 mm; zone of inhibition at 750 µg/mL [25]: 3 mm
Cc1ccc(C2=CC(c3c(-c4ccccc4)[nH]c4ccccc34)c3c(N)nc(=S)[nH]c3O2)cc1 (stereo not given) | 9 mm | 4 mm | 6 mm | 10 mm | 3 mm | 3 mm | 2 mm | 6 mm | 4 mm | 3 mm | 3 mm | 3 mm | 5 mm | 4 mm | 9 mm | 5 mm | 3 mm | 9 mm | 4 mm | 8 mm | Activity [21]: Active; zone of inhibition at 500 µg/mL [22]: 9 mm; zone of inhibition at 500 µg/mL [23]: 6 mm; zone of inhibition at 500 µg/mL [24]: 9 mm; zone of inhibition at 750 µg/mL [25]: 5 mm
Cc1ccc(C2=CC(c3c(-c4ccccc4)[nH]c4ccc(C)cc34)C(C#N)=C(N)O2)cc1 (stereo not given) | 13 mm | 14 mm | 0 mm | 12 mm | 8 mm | 3 mm | 0 mm | 0 mm | 9 mm | 0 mm | 9 mm | 0 mm | 10 mm | 14 mm | 13 mm | 0 mm | 0 mm | 9 mm | 9 mm | 4 mm | Activity [21]: Active; zone of inhibition at 500 µg/mL [22]: 9 mm; zone of inhibition at 500 µg/mL [23]: 14 mm; zone of inhibition at 500 µg/mL [24]: 8 mm; zone of inhibition at 750 µg/mL [25]: 10 mm
Cc1ccc(C2=CC(c3c(-c4ccccc4)[nH]c4ccc(C)cc34)c3c(N)nc(=S)[nH]c3O2)cc1 (stereo not given) | 5 mm | 0 mm | 0 mm | 5 mm | 5 mm | 4 mm | 0 mm | 5 mm | 5 mm | 9 mm | 5 mm | 8 mm | 6 mm | 0 mm | 5 mm | 0 mm | 9 mm | 5 mm | 5 mm | 4 mm | Activity [21]: Active; zone of inhibition at 500 µg/mL [22]: 6 mm; zone of inhibition at 500 µg/mL [23]: 0 mm; zone of inhibition at 500 µg/mL [24]: 5 mm; zone of inhibition at 750 µg/mL [25]: 5 mm
Nc1nc(=S)[nH]c2c1C(c1c(-c3ccccc3)[nH]c3ccccc13)C=C(c1ccc(Cl)cc1)O2 (stereo not given) | 8 mm | 10 mm | 3 mm | 9 mm | 10 mm | 10 mm | 5 mm | 8 mm | 5 mm | 12 mm | 5 mm | 12 mm | 10 mm | 11 mm | 8 mm | 3 mm | 5 mm | 8 mm | 5 mm | 10 mm | Activity [21]: Active; zone of inhibition at 500 µg/mL [22]: 8 mm; zone of inhibition at 500 µg/mL [23]: 10 mm; zone of inhibition at 500 µg/mL [24]: 10 mm; zone of inhibition at 750 µg/mL [25]: 10 mm
